Measurements: patent publication US7030139B2, “Compounds” (AstraZeneca AB, priority 2001, dated 2006)
Read-outs that look alike come from different tables or passages of the source.

Tests used:
hCB2 [1] = target: T1, hCB2 (Homo sapiens, UniProt P34972); experiment: hCB2 receptor binding (3H-CP55,940 displacement, membranes)
T1 construct: purchased BioSignal

hCB2 [2] = target: T1, hCB2; experiment: hCB2 GTPγS binding; format: biochemical
hCB2-Sf9 = target: T2, hCB2-Sf9 (Homo sapiens, UniProt P34972); experiment: Ki hCB2-Sf9 binding (compounds made in a plate); details: Table 2, printed in the IC50 (nM) column; n = 2; measured from 2 compounds made in a plate
T2 construct: host or cells: Sf9 (inferred from the head 'hCB2-Sf9')
T2 sequence (P34972 whole entry): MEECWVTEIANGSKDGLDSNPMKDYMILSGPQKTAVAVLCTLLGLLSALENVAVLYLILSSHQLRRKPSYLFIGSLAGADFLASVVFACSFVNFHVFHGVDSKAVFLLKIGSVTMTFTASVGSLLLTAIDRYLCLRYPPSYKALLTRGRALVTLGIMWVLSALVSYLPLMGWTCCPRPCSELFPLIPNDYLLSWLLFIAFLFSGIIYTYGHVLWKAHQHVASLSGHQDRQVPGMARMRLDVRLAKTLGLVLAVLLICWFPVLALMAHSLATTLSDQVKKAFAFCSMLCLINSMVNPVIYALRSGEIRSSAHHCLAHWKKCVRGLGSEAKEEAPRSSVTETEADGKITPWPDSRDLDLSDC

T1 sequence (P34972 whole entry): as above

SMILES | IC50 (hCB2 [1]; hCB2 IC50 (nM)) | EC50 (hCB2 [2]) | Emax (hCB2 [2]) | also measured
CCOc1ccc(Cc2nc3cc(N(C)C(=O)CC(C)C)ccc3n2Cc2ccc(COC(C)=O)o2)cc1 [Example 49, N-[1-[[5-[(Acetyloxy)methyl]-2-furanyl]methyl]-2-[(4-ethoxyphenyl)methyl]-1H-benzimidazol-5-yl]-N,3-dimethyl-butanamide] | 32 nM | 6.8 nM | 67% | 
CCOc1ccc(Cc2nc3cc(C(=O)N(CC)CC)ccc3n2CC2CC2)cn1 [Example 13, 1-(Cyclopropylmethyl)-2-[(6-ethoxy-3-pyridinyl)methyl]-N,N-diethyl-1H-benzimidazole-5-carboxamide] |  | 97 nM |  | Ki (hCB2 [1]): 133 nM; Emax (hCB2 [2]; read-out: % Emax, hCB2): 93%
CCOc1ccc(Cc2nc3cc(C(=O)N(CC)CC)ccc3n2CCC(=O)OC)cc1 [Example 5, Methyl 3-[5-[(diethylamino)carbonyl]-2-(4-ethoxybenzyl)-1H-benzimidazol-1-yl]propanoate] |  | 65 nM |  | Ki (hCB2 [1]): 142 nM; Emax (hCB2 [2]; read-out: % Emax, hCB2): 53%
CCOc1ccc(Cc2nc3cc(CN4CCOCC4)ccc3n2CC2CC2)cc1 [Example 24, 1-(Cyclopropylmethyl)-2-(4-ethoxybenzyl)-5-(4-morpholinylmethyl)-1H-benzimidazole] |  | 81 nM |  | Ki (hCB2 [1]): 178 nM; Emax (hCB2 [2]; read-out: % Emax, hCB2): 62%
CCOc1ccc(Cc2nc3cc(N(C)S(=O)(=O)c4cccs4)cnc3n2CC2CC2)cc1 [Example 62, N-[3-(Cyclopropylmethyl)-2-[(4-ethoxyphenyl)methyl]-3H-imidazo[4,5-b]pyridin-6-yl]-N-methyl-2-thiophenesulfonamide] |  |  |  | Ki (hCB2-Sf9): 4.5 nM
CCOc1ccc(Nc2nc3cc(C(=O)N(CC)CC)ccc3n2CCC(C)C)cc1 [Example 39, 2-(4-Ethoxyanilino)-N,N-diethyl-1-isopentyl-1H-benzimidazole-5-carboxamide] |  | 64 nM |  | Ki (hCB2 [1]): 98 nM; Emax (hCB2 [2]; read-out: % Emax, hCB2): 64%
CCOc1ccc(C(O)c2nc3cc(C(=O)N(CC)CC)ccc3n2CCC(C)C)cc1 (stereo not shown) [Example 46, 2-[(4-Ethoxyphenyl)hydroxymethyl]-N,N-diethyl-(3-methylbutyl)-1H-benzimidazole-5-carboxamide] | 100 nM | 69 nM | 70% | 
CCOc1ccc(Cc2nc3cc(N(C)S(=O)(=O)c4ccccc4)cnc3n2CC2CC2)cc1 [Example 61, N-[3-(Cyclopropylmethyl)-2-[(4-ethoxyphenyl)methyl]-3H-imidazo[4,5-b]pyridin-6-yl]-N-methyl-benzenesulfonamide] |  |  |  | Ki (hCB2-Sf9): 11.4 nM
CCOc1ccc(Cc2nc3cc(N(C)C(=O)NC(C)C)cnc3n2CC2CC2)cc1 [Example 60, N-[3-(Cyclopropylmethyl)-2-[(4-ethoxyphenyl)methyl]-3H-imidazo[4,5-b]pyridin-6-yl]-N-methyl-N′-(1-methylethyl)-urea] |  |  |  | IC50 (hCB2 [1]; read-out: hCB2 IC50): 970 nM
CCOc1ccc(C(C)c2nc3cc(N(C)C(=O)NC(C)C)ccc3n2CC2CCCCC2)cc1 (stereo not shown) [Example 56, N-[1-(Cyclohexylmethyl)-2-[1-(4-ethoxyphenyl)ethyl]-1H-benzimidazol-5-yl]-N-methyl-N′-(1-methylethyl)-urea] | 5.4 nM | 1.5 nM | 88% | 
CCOc1ccc(C(C)c2nc3cc(N(C)C(=O)NC(C)C)ccc3n2CC2CC2)cc1 (single isomer, unassigned; (+)) [Example 55, (+)-N-[1-(Cyclopropylmethyl)-2-[1-(4-ethoxyphenyl)ethyl]-1H-benzimidazol-5-yl]-N-methyl-N′-(1-methylethyl)-urea] | 715 nM |  |  | 
CCOc1ccc(C(C)c2nc3cc(N(C)C(=O)CC(C)C)ccc3n2CC2CC2)cc1 (stereo not shown) [Example 52, N-[1-(Cyclopropylmethyl)-2-[1-(4-ethoxyphenyl)ethyl]-1H-benzimidazol-5-yl]-N,3-dimethyl-butanamide] |  |  | 41% | 
CCOc1ccc(C(C)c2nc3cc(N(C)C(=O)NC(C)C)ccc3n2CC2CC2)cc1 (single isomer, unassigned; (-)) [Example 54, (−)-N-[1-(Cyclopropylmethyl)-2-[1-(4-ethoxyphenyl)ethyl]-1H-benzimidazol-5-yl]-N-methyl-N′-(1-methylethyl)-urea] | 15.5 nM | 3.4 nM | 66% | 
CCOc1ccc(Cc2nc3cc(NC(=O)OC)ccc3n2CC2CC2)cc1 [Example 26, Methyl-1-(cyclopropylmethyl)-2-(4-ethoxybenzyl)-1H-benzimidazol-5-yl carbamate] |  |  |  | % Emax, hCB2 (hCB2 [2]): 295(41%); EC50 (hCB2 [2]; read-out: EC50, hCB2, nM): 295 nM
CCOc1ccc(C(C)c2nc3cc(N(C)C(=O)NC(C)C)ccc3n2CC2CC2)cc1 (racemic) [Example 53, (rac)-N-[1-(Cyclopropylmethyl)-2-[1-(4-ethoxyphenyl)ethyl]1H-benzimidazol-5-yl]-N-methyl-N′-(1-methylethyl)-urea] | 36 nM | 6.7 nM | 46% | 
CCOc1ccc(Cc2nc3cc(C(=O)N(CC)CC)cnc3n2Cc2ccc([N+](=O)[O-])s2)cc1 [Example 57, 2-[(4-Ethoxyphenyl)methyl]-N,N-diethyl-3-[(5-nitro-2-thienyl)methyl]-3H-imidazo[4,5-b]pyridine-6-carboxamide] | 9.5 nM | 2.8 nM | 72% | 
C=CCNc1ccc2c(c1)nc(Cc1ccc(OCC)cc1)n2CC1CC1 [Example 33, N-Allyl-1-(cyclopropylmethyl)2-(4-ethoxybenzyl)-1H-benzimidazol-5-amine] |  |  |  | Ki (hCB2 [1]; Table 1, human CB2 membranes, 3H-CP55,940, read-out: Ki(hCB2)): 308 nM; EC50 (hCB2 [2]; Table 1, GTPγS binding, human CB2 membranes, read-out: EC50, hCB2, nM): 146 nM; Emax (hCB2 [2]; Table 1, GTPγS binding, maximal stimulated binding defined with 1 μM Win 55,212-2, read-out: % Emax, hCB2): 54%
CCOc1ccc(Cc2nc3cc(C(=O)N(CC)CC)ccc3n2C[C@@H]2CCCO2)cc1 [Example 42] | 23 nM | 5 nM | 76% | 
CCOc1ccc(Cc2nc3cc(N(C)C(=O)CC(C)C)cnc3n2CC2CC2)cc1 [Example 59, N-[3-(Cyclopropylmethyl)-2-[(4-ethoxyphenyl)methyl]-3H-imidazo[4,5-b]pyridin-6-yl]-N,3-dimethyl-butanamide] | 328 nM | 64 nM | 67% | 
CCOc1ccc(Cc2nc3cc(C(=O)N(CC)CC)ccc3n2Cc2ccsc2)cc1 [Example 40, 2-[(4-Ethoxyphenyl)methyl]-N,N-diethyl-1-(3-thienylmethyl)-1H-benzimidazole-5-carboxamide] | 2.8 nM | 1.2 nM | 74% | 
CCOc1ccc(Cc2nc3cc(N(C)C(=O)CC(C)C)ccc3n2Cc2ccsc2)cc1 [Example 47, N-[2-[(4-Ethoxyphenyl)methyl]-1-(3-thienylmethyl)1H-benzimidazol-5-yl]-N,3-dimethyl-butanamide] | 3.3 nM | 1.4 nM | 70% | 
